{
  "source": "PubChem BioAssay (NCI)",
  "assay_in_all_cases": "NCI anticancer screen, dose series, 384-well format",
  "key": {"NCI/ADR-RES ovarian": {"test_system": "NCI/ADR-RES ovarian"}, "MOLT-4 leukemia": {"test_system": "MOLT-4 leukemia"}, "HOP-62 NSCLC": {"test_system": "HOP-62 NSCLC"}, "HCT-15 colon": {"test_system": "HCT-15 colon"}, "NCI-H322M lung": {"test_system": "NCI-H322M lung"}, "MDA-MB-231 breast": {"test_system": "MDA-MB-231 breast"}, "ACHN renal": {"test_system": "ACHN renal"}, "SNB-75 CNS": {"test_system": "SNB-75 CNS"}, "DU-145 prostate": {"test_system": "DU-145 prostate"}, "OVCAR-8 ovarian": {"test_system": "OVCAR-8 ovarian"}, "HCC-2998 colon": {"test_system": "HCC-2998 colon"}, "NCI-H226 lung": {"test_system": "NCI-H226 lung"}, "HOP-92 NSCLC": {"test_system": "HOP-92 NSCLC"}},
  "note": "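At the GI50, growth is halved. The concentration for full growth arrest is given as TGI.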",
  "data": [
    {"compound": "CS(=O)(=O)CCNCc1ccc(-c2ccc3ncnc(Nc4ccc(OCc5cccc(F)c5)c(Cl)c4)c3c2)o1", "values": [
      {"measurement": "GI50", "setting": "NCI/ADR-RES ovarian", "value": 1.56, "unit": "µM"},
      {"measurement": "TGI", "setting": "NCI/ADR-RES ovarian", "value": 3.47, "unit": "µM"},
      {"measurement": "GI50", "setting": "MOLT-4 leukemia", "value": 1.49, "unit": "µM"},
      {"measurement": "TGI", "setting": "MOLT-4 leukemia", "value": 2.82, "unit": "µM"},
      {"measurement": "GI50", "setting": "HOP-62 NSCLC", "value": 2.3, "unit": "µM"},
      {"measurement": "TGI", "setting": "HOP-62 NSCLC", "value": 4.95, "unit": "µM"},
      {"measurement": "GI50", "setting": "HCT-15 colon", "value": 1.45, "unit": "µM"},
      {"measurement": "TGI", "setting": "HCT-15 colon", "value": 2.79, "unit": "µM"},
      {"measurement": "GI50", "setting": "NCI-H322M lung", "value": 0.179, "unit": "µM"},
      {"measurement": "TGI", "setting": "NCI-H322M lung", "value": 1.14, "unit": "µM"},
      {"measurement": "GI50", "setting": "MDA-MB-231 breast", "value": 1.93, "unit": "µM"},
      {"measurement": "TGI", "setting": "MDA-MB-231 breast", "value": 3.4, "unit": "µM"},
      {"measurement": "GI50", "setting": "ACHN renal", "value": 0.398, "unit": "µM"},
      {"measurement": "TGI", "setting": "ACHN renal", "value": 8.09, "unit": "µM"},
      {"measurement": "GI50", "setting": "SNB-75 CNS", "value": 2.28, "unit": "µM"},
      {"measurement": "TGI", "setting": "SNB-75 CNS", "value": 5.28, "unit": "µM"},
      {"measurement": "GI50", "setting": "DU-145 prostate", "value": 1.39, "unit": "µM"},
      {"measurement": "TGI", "setting": "DU-145 prostate", "value": 3.38, "unit": "µM"},
      {"measurement": "GI50", "setting": "OVCAR-8 ovarian", "value": 1.72, "unit": "µM"},
      {"measurement": "TGI", "setting": "OVCAR-8 ovarian", "value": 3.73, "unit": "µM"},
      {"measurement": "GI50", "setting": "HCC-2998 colon", "value": 1.81, "unit": "µM"},
      {"measurement": "TGI", "setting": "HCC-2998 colon", "value": 3.22, "unit": "µM"},
      {"measurement": "GI50", "setting": "NCI-H226 lung", "value": 2.12, "unit": "µM"},
      {"measurement": "TGI", "setting": "NCI-H226 lung", "value": 4.75, "unit": "µM"},
      {"measurement": "GI50", "setting": "HOP-92 NSCLC", "value": 1.37, "unit": "µM"},
      {"measurement": "TGI", "setting": "HOP-92 NSCLC", "value": 2.68, "unit": "µM"}
    ]}
  ]
}
